28 compounds from ChEMBL document CHEMBL5338786, “In Silico-Guided Rational Drug Design and Synthesis of Novel 4-(Thiophen-2-yl)butanamides as Potent and Selective TRPV1 Agonists” (J Med Chem, 2023) can be followed below.

pEC50, pIC50: −log10 of the molar value. Calls of active or inactive are those of the source.

Series [1] addresses T1, Transient receptor potential cation channel subfamily A member 1 (Rattus norvegicus, UniProt Q6RI86). The series can be described thus: (§1) Agonist activity at rat recombinant TRPA1 expressed in HEK293 cells assessed as increase in intracellular calcium accumulation by Fluo4-AM based assay. The format is cell-based. In general terms: A change in cytosolic calcium serves as a functional read-out for many receptors and channels.

Series [2] has as its target T1, Transient receptor potential cation channel subfamily A member 1. The series can be described thus: Antagonist activity at rat recombinant TRPA1 expressed in HEK293 cells assessed as desensitization by measuring inhibition of allyl isothiocyanate induced intracellular calcium accumulation preincubated for 5 mins followed by allyl isothiocyanate stimulation by Fluo4-AM based assay. The series is classed as cell-based.

The target of series [3] is T2, Transient receptor potential cation channel subfamily V member 1 (Homo sapiens, UniProt Q8NER1). The series can be described thus: Agonist activity at human recombinant TRPV1 expressed in HEK293 cells assessed as increase in intracellular calcium level by Fluo4-AM based assay. The format is cell-based.
T2 sequence (Q8NER1 whole entry): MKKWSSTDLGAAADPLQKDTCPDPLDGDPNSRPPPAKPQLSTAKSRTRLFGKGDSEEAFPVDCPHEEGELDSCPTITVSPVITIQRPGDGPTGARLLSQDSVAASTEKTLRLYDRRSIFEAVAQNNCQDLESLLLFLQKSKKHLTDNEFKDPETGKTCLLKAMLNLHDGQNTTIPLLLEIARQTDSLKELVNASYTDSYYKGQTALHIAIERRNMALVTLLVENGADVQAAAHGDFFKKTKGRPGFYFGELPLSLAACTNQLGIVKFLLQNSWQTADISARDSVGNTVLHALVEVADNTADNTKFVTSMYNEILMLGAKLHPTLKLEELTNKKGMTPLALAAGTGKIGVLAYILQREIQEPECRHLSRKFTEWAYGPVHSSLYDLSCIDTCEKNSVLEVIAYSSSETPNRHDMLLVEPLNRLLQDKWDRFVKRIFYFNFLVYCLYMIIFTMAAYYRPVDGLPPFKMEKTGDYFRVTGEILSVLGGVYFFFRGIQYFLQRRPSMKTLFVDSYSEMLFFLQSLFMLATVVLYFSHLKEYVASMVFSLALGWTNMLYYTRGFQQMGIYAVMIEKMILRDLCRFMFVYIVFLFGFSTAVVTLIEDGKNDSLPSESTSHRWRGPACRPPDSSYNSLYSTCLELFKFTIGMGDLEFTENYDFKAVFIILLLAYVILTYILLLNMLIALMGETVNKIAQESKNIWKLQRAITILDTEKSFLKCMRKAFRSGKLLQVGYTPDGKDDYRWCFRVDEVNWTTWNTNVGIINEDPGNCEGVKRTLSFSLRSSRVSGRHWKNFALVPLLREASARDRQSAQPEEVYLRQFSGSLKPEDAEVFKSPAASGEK
The target in series [4] is T2, Transient receptor potential cation channel subfamily V member 1. Description: Antagonist activity at human recombinant TRPV1 expressed in HEK293 cells assessed as desensitization by measuring inhibition of capsaicin-induced intracellular calcium accumulation preincubated for 5 mins followed by capsaicin stimulation by Fluo4-AM based assay. The format is cell-based.

Series [5] deals with Transient receptor potential cation channel subfamily A member 1 (Rattus norvegicus) (UniProt Q6RI86). The series can be described thus: Agonist activity at rat recombinant TRPA1 expressed in HEK293 cells assessed as increase in intracellular calcium accumulation by measuring efficacy by Fluo4-AM based assay relative to allyl isothiocyanate. The format is cell-based.
Chain of Transient receptor potential cation channel subfamily A member 1 (Rattus norvegicus) (Q6RI86 whole entry): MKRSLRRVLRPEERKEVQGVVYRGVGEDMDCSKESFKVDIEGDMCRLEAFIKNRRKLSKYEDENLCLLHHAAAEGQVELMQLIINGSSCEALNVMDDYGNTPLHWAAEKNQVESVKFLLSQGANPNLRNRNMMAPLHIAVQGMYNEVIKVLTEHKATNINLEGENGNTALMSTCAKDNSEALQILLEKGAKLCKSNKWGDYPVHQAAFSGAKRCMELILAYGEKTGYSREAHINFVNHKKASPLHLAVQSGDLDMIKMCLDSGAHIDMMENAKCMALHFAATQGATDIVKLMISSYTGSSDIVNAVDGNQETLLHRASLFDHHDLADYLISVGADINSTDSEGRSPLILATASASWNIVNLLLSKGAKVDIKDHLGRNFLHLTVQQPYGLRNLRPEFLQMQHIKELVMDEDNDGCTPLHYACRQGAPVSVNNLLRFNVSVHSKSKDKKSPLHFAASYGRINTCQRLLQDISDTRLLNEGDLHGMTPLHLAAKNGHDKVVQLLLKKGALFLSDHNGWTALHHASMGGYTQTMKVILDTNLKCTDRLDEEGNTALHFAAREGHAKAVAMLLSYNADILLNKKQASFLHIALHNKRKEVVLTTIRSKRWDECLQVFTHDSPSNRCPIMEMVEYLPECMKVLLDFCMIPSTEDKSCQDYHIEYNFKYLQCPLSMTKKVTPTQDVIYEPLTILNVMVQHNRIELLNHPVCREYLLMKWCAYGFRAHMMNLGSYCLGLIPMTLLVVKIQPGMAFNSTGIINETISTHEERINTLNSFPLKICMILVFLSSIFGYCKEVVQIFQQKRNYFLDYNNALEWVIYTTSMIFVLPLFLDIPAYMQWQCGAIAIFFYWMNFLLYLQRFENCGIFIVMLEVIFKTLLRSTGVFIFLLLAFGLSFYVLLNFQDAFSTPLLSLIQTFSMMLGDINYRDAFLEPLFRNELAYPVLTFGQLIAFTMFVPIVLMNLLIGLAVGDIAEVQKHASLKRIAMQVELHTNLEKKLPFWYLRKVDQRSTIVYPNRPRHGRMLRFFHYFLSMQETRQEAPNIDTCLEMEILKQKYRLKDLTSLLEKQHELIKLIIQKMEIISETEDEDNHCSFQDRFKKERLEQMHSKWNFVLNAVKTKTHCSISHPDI
Series [6] has the same target. The description is as §1. The format is cell-based.
Another series concerns HUVEC. The series can be described thus: Cytotoxicity against HUVEC cells expressing TRPV1 receptors assessed as reduction in cell viability at 0.1 to 10 uM measured after 48 hrs by Alamar Blue assay. The format is toxicity, cell-based. Particulars: human, dose 0.1-10 µM.
The test system of another series is HaCaT. The series can be described thus: Cytotoxicity against human HaCaT cells expressing TRPV1 receptors assessed as reduction in cell viability at 0.1 to 10 uM measured after 48 hrs by Alamar Blue assay. Particulars: dose 0.1-10 µM. The series is classed as toxicity, cell-based.
Series [7] concerns the target Transient receptor potential cation channel subfamily V member 4 (Rattus norvegicus, UniProt Q9ERZ8). Description: Antagonist activity at rat recombinant TRPV4 expressed in HEK293 cells assessed as desensitization by measuring inhibition of GSK1016790A induced intracellular calcium accumulation preincubated for 5 mins by Fluo4-AM based assay. The series is classed as cell-based.

In series [8] the target is Transient receptor potential cation channel subfamily M member 8 (Rattus norvegicus, UniProt Q8R455). The series can be described thus: Antagonist activity at rat recombinant TRPM8 expressed in HEK293 cells assessed as desensitization by measuring inhibition of icilin induced intracellular calcium accumulation preincubated for 5 mins by Fluo4-AM based assay. The series is classed as cell-based.
Chain of Transient receptor potential cation channel subfamily M member 8 (Q8R455 whole entry): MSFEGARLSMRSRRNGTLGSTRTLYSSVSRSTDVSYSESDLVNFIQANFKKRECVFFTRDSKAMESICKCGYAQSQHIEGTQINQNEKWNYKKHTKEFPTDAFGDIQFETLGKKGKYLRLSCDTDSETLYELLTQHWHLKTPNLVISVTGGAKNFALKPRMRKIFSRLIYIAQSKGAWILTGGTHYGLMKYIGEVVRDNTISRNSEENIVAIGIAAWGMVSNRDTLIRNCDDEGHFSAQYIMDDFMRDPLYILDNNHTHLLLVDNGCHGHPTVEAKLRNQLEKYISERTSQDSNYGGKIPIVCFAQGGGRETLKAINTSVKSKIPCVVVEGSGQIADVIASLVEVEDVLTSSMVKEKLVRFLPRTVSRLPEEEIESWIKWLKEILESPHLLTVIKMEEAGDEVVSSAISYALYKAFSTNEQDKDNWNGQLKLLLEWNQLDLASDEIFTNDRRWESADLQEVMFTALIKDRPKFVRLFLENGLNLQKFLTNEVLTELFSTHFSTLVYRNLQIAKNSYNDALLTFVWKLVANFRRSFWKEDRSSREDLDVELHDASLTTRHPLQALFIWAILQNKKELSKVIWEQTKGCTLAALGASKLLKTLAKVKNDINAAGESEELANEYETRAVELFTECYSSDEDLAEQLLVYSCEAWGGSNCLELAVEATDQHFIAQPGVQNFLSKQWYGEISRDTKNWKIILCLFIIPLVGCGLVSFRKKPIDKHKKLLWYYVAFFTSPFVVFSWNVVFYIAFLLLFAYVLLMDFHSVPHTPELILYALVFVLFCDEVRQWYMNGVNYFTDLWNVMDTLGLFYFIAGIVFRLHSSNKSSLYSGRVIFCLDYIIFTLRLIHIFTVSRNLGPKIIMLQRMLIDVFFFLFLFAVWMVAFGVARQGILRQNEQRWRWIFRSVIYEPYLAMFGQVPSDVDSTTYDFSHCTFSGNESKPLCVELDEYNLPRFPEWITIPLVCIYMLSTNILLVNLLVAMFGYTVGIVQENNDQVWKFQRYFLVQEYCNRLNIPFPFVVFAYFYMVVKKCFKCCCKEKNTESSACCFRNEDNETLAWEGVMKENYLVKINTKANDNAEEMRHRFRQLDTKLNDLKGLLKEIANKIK

Series [9] is described as follows: Toxicity in C57BL/6J mouse assessed as alteration in nociceptive threshold at 0.0075 to 0.15 ug per paw, sc measured after 10 mins. The format is organism-based. Particulars: in vivo, dose 0.0075-0.15 µg.
Series [10] relates to Mus musculus. Description: Antinociceptive activity against formalin-induced nociception in C57BL/6J mouse assessed as total time of nociceptive response at 0.0015 ug per paw, sc pretreated for 10 min followed by formalin challenge and measured after 20 to 60 mins (reference value: 2.18 +/- 0.183 min). The format is functional. Particulars: dose 0.0015 µg, time 30-70 min.

The test system of series [11] is Mus musculus. The series can be described thus: Antinociceptive activity against formalin-induced nociception in C57BL/6J mouse assessed as total time of nociceptive response at 0.15 ug per paw, sc pretreated for 10 min followed by formalin challenge and measured after 20 to 60 mins (reference value: 2.18 +/- 0.183 min). Particulars: dose 0.15 µg, time 30-70 min. The series is classed as functional.

The test system of series [12] is Mus musculus. Description: Antinociceptive activity against formalin-induced nociception in C57BL/6J mouse assessed as total time of nociceptive response at 0.0075 ug per paw, sc pretreated for 10 min followed by formalin challenge and measured after 20 to 60 mins (reference value: 2.18 +/- 0.183 min). The format is functional. Particulars: dose 0.0075 µg, time 30-70 min.

Series [13] addresses Transient receptor potential cation channel subfamily V member 4 (Rattus norvegicus) (UniProt Q9ERZ8). The series can be described thus: Agonist activity at rat recombinant TRPV4 expressed in HEK293 cells assessed as increase in intracellular calcium accumulation by measuring efficacy by Fluo4-AM based assay relative to ionomycin. Particulars: filed as agonist. The format is cell-based.

Chain of Transient receptor potential cation channel subfamily V member 4 (Q9ERZ8 whole entry): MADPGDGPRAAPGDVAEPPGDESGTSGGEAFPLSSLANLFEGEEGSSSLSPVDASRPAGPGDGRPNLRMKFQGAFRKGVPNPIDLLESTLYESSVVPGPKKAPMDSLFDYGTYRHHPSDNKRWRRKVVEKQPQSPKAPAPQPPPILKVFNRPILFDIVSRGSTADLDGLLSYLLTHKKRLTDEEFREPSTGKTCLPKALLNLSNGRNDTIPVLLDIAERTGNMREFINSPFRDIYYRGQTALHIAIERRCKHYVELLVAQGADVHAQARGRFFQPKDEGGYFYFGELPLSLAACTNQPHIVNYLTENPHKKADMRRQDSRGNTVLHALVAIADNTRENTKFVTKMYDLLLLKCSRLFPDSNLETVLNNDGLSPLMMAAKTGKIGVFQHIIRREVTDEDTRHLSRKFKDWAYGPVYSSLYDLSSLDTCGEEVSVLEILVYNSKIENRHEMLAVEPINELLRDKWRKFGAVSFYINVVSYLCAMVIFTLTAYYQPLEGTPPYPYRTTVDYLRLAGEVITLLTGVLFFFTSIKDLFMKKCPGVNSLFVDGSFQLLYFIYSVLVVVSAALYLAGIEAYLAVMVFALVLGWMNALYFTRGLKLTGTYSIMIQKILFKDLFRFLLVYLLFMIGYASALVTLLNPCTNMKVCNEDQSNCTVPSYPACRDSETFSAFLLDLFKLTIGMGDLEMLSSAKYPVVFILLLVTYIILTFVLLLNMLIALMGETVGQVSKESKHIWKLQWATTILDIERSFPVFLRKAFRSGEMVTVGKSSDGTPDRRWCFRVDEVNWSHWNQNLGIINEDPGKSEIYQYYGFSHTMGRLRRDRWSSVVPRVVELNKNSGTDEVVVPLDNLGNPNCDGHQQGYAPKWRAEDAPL
T1 sequence (Q6RI86 whole entry): as the sequence (Q6RI86 whole entry) above
Chain of Transient receptor potential cation channel subfamily V member 4 (Rattus norvegicus) (Q9ERZ8 whole entry): as the sequence (Q9ERZ8 whole entry) above

Consider `O=C(CCCc1ccccc1)NCc1ccc(Cl)c(Cl)c1`, for which the negative-log EC50 (pEC50) – broadly, the EC50 on a negative log10 scale, so that one unit is a factor of ten – in [1] was 4.97. In addition, the pIC50 (in general, the IC50 on a negative log10 scale, so that one unit is a factor of ten) in series [2] was 4.92.
Regarding `O=C(CCCc1ccc(-c2cccnc2)s1)NCc1ccc(O)cc1`, in [1], the pEC50 is 4.57. In addition, the pIC50 in series [2] was less than 4.30.
As to `O=C(CCCc1ccc(-c2ccccc2)s1)NCc1ccc(O)cc1`, in series [2], the pIC50 was less than 4.30.
On to `O=C(CCCc1ccc(-c2cccnc2)s1)NCc1ccccc1`, for which the pEC50 in [3] was less than 5.00. Further, the pIC50 in series [4] and in series [2] was less than 4.00 in each case. The Efficacy in [5] is less than 10%. The result in series [6] was inactive.
Take `COc1cc(CNC(=O)CCCc2ccc(I)s2)ccc1O`: the negative logarithm of the IC50 (pIC50) in [2] is less than 4.30; in series [7], less than 4.30; in series [8], 4.77. Besides, the Activity result (with HUVEC; with HaCaT; in series [9]) was “Non-Toxic” each time.
On to `O=C(CCCc1ccc(-c2cccnc2)s1)Nc1ccc(O)cc1`, for which the negative logarithm of the IC50 (pIC50) in series [2] is less than 4.00.
In the case of `O=C(CCCc1ccccc1)NCc1ccc(O)cc1`, the negative-log IC50 (pIC50) in [2] was less than 4.00.
In the case of `O=C(CCCc1ccccc1)NCc1ccccc1`, the pEC50 in series [3] was less than 4.30. The pIC50 in series [4] and in series [2] was less than 4.00 in each case. Moreover, in series [5], the Efficacy was less than 10%. In addition, the result in series [6] was inactive.
Take `COc1cc(CNC(=O)CCCc2ccc(-c3cccnc3)s2)ccc1O`: the pIC50 in series [2], in [7] and in [8] was less than 4.00 in each case. Moreover, the Activity entry (in the series on HUVEC; with HaCaT; in series [9]) was “Non-Toxic” throughout. Besides, the Time in the series with Mus musculus [10] is on record as 0.758 min; with Mus musculus [11] it was 0.618 min; in the series on Mus musculus [12], 1.95 min.
Regarding `O=C(CCCc1ccccc1)Nc1ccc(O)cc1`, the pIC50 in series [2] was less than 5.00.
Turning to `O=C(CCCc1ccccc1)NCCc1ccc(O)c(O)c1`, the pEC50 in [3] is 5.58. Besides, the pIC50 was 5.23 in series [4] and less than 5.00 in [2]. Besides, the Efficacy in series [5] is less than 10%. Besides, the outcome in series [6] was inactive.
For `O=C(CCCc1ccc(I)s1)NCc1ccc(Cl)c(Cl)c1`, the pEC50 in [1] was less than 4.30. Also, in [2], the pIC50 is 4.72.
Take `O=C(CCCc1cccs1)NCc1ccccc1`: the pIC50 in series [2] was less than 4.00.
On to `O=C(CCCc1ccc(-c2ccccc2)s1)Nc1ccc(O)cc1`, for which, in series [2], the negative logarithm of the IC50 (pIC50) is less than 4.30.
For `O=C(CCCc1ccc(I)s1)NCc1ccc(O)cc1`, the negative-log IC50 (pIC50) in [2] was less than 4.00.
With `O=C(CCCc1ccc(-c2ccccc2)s1)NCc1ccc(Cl)c(Cl)c1`, the pEC50 in [1] is 4.92. Moreover, in [2], the negative-log IC50 (pIC50) is less than 4.30.
With `O=C(CCCc1ccc(-c2cccnc2)s1)NCc1ccc(Cl)c(Cl)c1`, in series [1], the negative-log EC50 (pEC50) was 4.98. For the same compound, the pIC50 in series [2] is less than 4.30.
`CC(C)C[C@H](NC(=O)c1cc2ccccc2s1)C(=O)N1CCN(C(=O)[C@H](CO)NS(=O)(=O)c2ccc(Cl)cc2Cl)CC1`: the Efficacy in series [13] came to 88.5%.
In the case of `O=C(CCCc1ccc(-c2cccnc2)s1)NCCc1ccc(O)c(O)c1`, in [3], the negative logarithm of the EC50 (pEC50) is less than 5.00. Also, the negative-log IC50 (pIC50) was less than 5.00 in [4] and less than 4.00 in [2]. For the same compound, the Efficacy in [5] was less than 10%. Besides, the result in series [6] was inactive.
Turning to `O=C(CCCc1ccc(-c2ccccc2)s1)NCc1ccccc1`, the negative logarithm of the IC50 (pIC50) in series [2] was less than 4.00.
For `COc1cc(CNC(=O)CCCc2ccccc2)ccc1O`, the pEC50 in series [1] was 4.57. Moreover, in series [2], the negative logarithm of the IC50 (pIC50) was 4.35.
`COc1cc(CNC(=O)CCCc2ccc(-c3ccccc3)s2)ccc1O`: in series [1], the negative-log EC50 (pEC50) is 4.73. Besides, the negative logarithm of the IC50 (pIC50) in [2] was 4.47; in series [7], 4.56; in series [8], 4.86.
Turning to `COc1ccc(CNC(=O)CCCc2ccc(I)s2)cc1`, in series [2], the negative logarithm of the IC50 (pIC50) is less than 4.00.
For `COc1ccc(CNC(=O)CCCc2ccc(-c3cccnc3)s2)cc1`, the negative-log EC50 (pEC50) in series [3] and in [1] was less than 4.30 throughout. Besides, the pIC50 in series [4] and in [2] was less than 4.30 each time. Moreover, the Efficacy in [5] is 21%.
For the compound `O=C(CCCc1ccc(I)s1)NCCc1ccc(O)c(O)c1`, in series [3], the negative-log EC50 (pEC50) was 5.94. Moreover, the figures for the pIC50 in series [4] and in series [2] were 6.34 and less than 4.00, respectively. In addition, the Efficacy in series [5] is less than 10%. Moreover, the outcome in [6] was inactive.
On to `O=C(CCCc1ccc(I)s1)NCc1ccccc1`, for which the negative-log IC50 (pIC50) in [2] was less than 4.00.
For `COc1ccc(CNC(=O)CCCc2ccccc2)cc1`, in series [2], the pIC50 was less than 4.00.
As to `O=C(CCCc1ccc(I)s1)Nc1ccc(O)cc1`, the pEC50 in series [1] was 4.52. In series [2], the negative logarithm of the IC50 (pIC50) is 4.36.
